For 22 compounds, IC50 results are on record in patent US9850203B2, “Autotaxin inhibitor compounds” (PharmAkea, Inc., priority 2013, dated 2017).

SMILES strings stand for the structures.

In this experiment the target is human autotaxin (ATX) (Homo sapiens (Human), UniProt Q13822). The experiment in a line: Human Autotaxin Assay. It is filed as biochemical. The conditions noted are these: concentrated conditioned media from Hep3B cells; LPC substrate, choline release. As for the experimental part:
ATX activity is assayed in concentrated conditioned media from Hep3B human hepatocellular carcinoma cells by measuring the amount of choline released from the substrate, lysophosphatidylcholine (LPC) as it is cleaved to LPA. Conditioned media is collected from confluent Hep3B cells and concentrated 20-fold using Centriprep-30 filter devices (Millipore). To assay for autotaxin inhibition, 10-20 μL of the concentrated conditioned media is incubated with 2.5 μL of a test compound in DMSO and 72.5-82.5 μL lyso-PLD buffer (100 mM Tris pH 9, 500 mM NaCl, 5 mM MgCl2, 5 mM CaCl2, 0.05% Triton X-100 in the presence or absence of 0.2% fatty-acid-free human serum albumin) for 15 min at 37° C. After the 15 min incubation, 5 uL of 2 mM LPC (14:0; Avanti Polar Lipids Cat#855575C) diluted in lyso-PLD buffer is added for a final concentration of 100 uM and the incubation continues for 1.5-3 hours at 37° C.

As for `Cc1c(Sc2cccc(C(=O)O)c2)c2ccc(Cl)c(F)c2n1CC(=O)N1CCC(Cc2ccc(C(F)(F)F)cc2)C1` (stereo not shown) [Compound 1-78, 3-((6-Chloro-7-fluoro-2-methyl-1-(2-oxo-2-(3-(4-(trifluoromethyl)benzyl)pyrrolidin-1-yl)ethyl)-1H-indol-3-yl)thio)benzoic acid], the IC50 lay in the range of 500 to 3000 nM. The figure for `Cc1c(Sc2cccc(C(=O)O)c2)c2ccc(Cl)c(F)c2n1CC(=O)N1CCc2ccccc2C1` [Compound 1-79, 3-((6-Chloro-1-(2-(3,4-dihydroisoquinolin-2(1H)-yl)-2-oxoethyl)-7-fluoro-2-methyl-1H-indol-3-yl)thio)benzoic acid] is no more than 500 nM. As to `Cc1c(Sc2cccc(C(=O)O)c2)c2ccc(Cl)c(F)c2n1CC(=O)N1CC(O)(C2CC2)C1` [Compound 1-82, 3-((6-Chloro-1-(2-(3-cyclopropyl-3-hydroxyazetidin-1-yl)-2-oxoethyl)-7-fluoro-2-methyl-1H-indol-3-yl)thio)benzoic acid], the IC50 was no more than 500 nM. Consider `Cc1c(Sc2cccc(C(=O)O)c2)c2ccc(Cl)c(F)c2n1CC(=O)N1CCCC(O)(C(F)(F)F)C1` (stereo not shown) [Compound 1-83, 3-((6-Chloro-7-fluoro-1-(2-(3-hydroxy-3-(trifluoromethyl)piperidin-1-yl)-2-oxoethyl)-2-methyl-1H-indol-3-yl)thio)benzoic acid], for which the IC50 was no more than 500 nM.

Take `Cc1c(Sc2cccc(C(=O)O)c2)c2ccc(Cl)c(F)c2n1CC(=O)N1CC(O)(C(F)(F)F)C1` [Compound 1-84, 3-((6-Chloro-7-fluoro-1-(2-(3-hydroxy-3-(trifluoromethyl)azetidin-1-yl)-2-oxoethyl)-2-methyl-1H-indol-3-yl)thio)benzoic acid]: the IC50 was no more than 500 nM.

Compound `Cc1c(Sc2cccc(C(=O)O)c2)c2ccc(Cl)c(F)c2n1CC(=O)N1CCCC1c1cnn(C)c1` (stereo not shown) [Compound 1-85, 3-((6-Chloro-7-fluoro-2-methyl-1-(2-(2-(1-methyl-1H-pyrazol-4-yl)pyrrolidin-1-yl)-2-oxoethyl)-1H-indol-3-yl)thio)benzoic acid] gave an IC50 of no more than 500 nM. The compound `Cc1c(Sc2cccc(C(=O)O)c2)c2ccc(Cl)c(F)c2n1CC(=O)N1CC(n2cccn2)C1` [Compound 1-86, 3-((1-(2-(3-(1H-Pyrazol-1-yl)azetidin-1-yl)-2-oxoethyl)-6-chloro-7-fluoro-2-methyl-1H-indol-3-yl)thio)benzoic acid] showed a concentration for half-maximal inhibition (IC50) of no more than 500 nM.

Compound `Cc1c(Sc2cccc(C(=O)O)c2)c2ccc(Cl)c(F)c2n1CC(=O)N1CCC12CCN(C)CC2` [Compound 1-87, 3-((6-Chloro-7-fluoro-2-methyl-1-(2-(7-methyl-1,7-diazaspiro[3.5]nonan-1-yl)-2-oxoethyl)-1H-indol-3-yl)thio)benzoic acid] yielded an IC50 of no more than 500 nM. On to `Cc1c(Sc2cccc(C(=O)O)c2)c2ccc(Cl)c(F)c2n1CC(=O)N1CCC(Cc2ccncc2)C1` (stereo not shown) [Compound 1-88, 3-((6-Chloro-7-fluoro-2-methyl-1-(2-oxo-2-(3-(pyridin-4-ylmethyl)pyrrolidin-1-yl)ethyl)-1H-indol-3-yl)thio)benzoic acid], for which the half-inhibitory concentration (IC50) is no more than 500 nM.

`Cc1c(Sc2cccc(C(=O)O)c2)c2ccc(Cl)c(F)c2n1CC(=O)N1CCC(c2ccncc2)C1` (stereo not shown) [Compound 1-89, 3-((6-Chloro-7-fluoro-2-methyl-1-(2-oxo-2-(3-(pyridin-4-yl)pyrrolidin-1-yl)ethyl)-1H-indol-3-yl)thio)benzoic acid] gave a half-maximal inhibitory concentration (IC50) of no more than 500 nM. With `Cc1c(Sc2cccc(C(=O)O)c2)c2ccc(Cl)c(F)c2n1CC(=O)N1CCC(O)C1` (stereo not shown) [Compound 1-90, 3-((6-Chloro-7-fluoro-1-(2-(3-hydroxypyrrolidin-1-yl)-2-oxoethyl)-2-methyl-1H-indol-3-yl)thio)benzoic acid] the figure was no more than 500 nM. `Cc1c(Sc2cccc(C(=O)O)c2)c2ccc(Cl)c(F)c2n1CC(=O)N1Cc2ccccc2C1` [Compound 1-91, 3-((6-Chloro-7-fluoro-1-(2-(isoindolin-2-yl)-2-oxoethyl)-2-methyl-1H-indol-3-yl)thio)benzoic acid] came in with a 50% inhibitory concentration (IC50) of no more than 500 nM. The compound `Cc1ccc2c(c1)CCN2C(=O)Cn1c(C)c(Sc2cccc(C(=O)O)c2)c2ccc(Cl)c(F)c21` [Compound 1-92, 3-((6-Chloro-7-fluoro-2-methyl-1-(2-(5-methylindolin-1-yl)-2-oxoethyl)-1H-indol-3-yl)thio)benzoic acid] gave a half-inhibitory concentration (IC50) of no more than 500 nM.

The compound `Cc1c(Sc2cccc(C(=O)O)c2)c2ccc(Cl)c(F)c2n1CC(=O)N1CCC(Cc2cnn(C)c2)C1` (stereo not shown) [Compound 1-93, 3-((6-Chloro-7-fluoro-2-methyl-1-(2-(3-((1-methyl-1H-pyrazol-4-yl)methyl)pyrrolidin-1-yl)-2-oxoethyl)-1H-indol-3-yl)thio)benzoic acid] registered an IC50 of no more than 500 nM. `Cc1c(Sc2cccc(C(=O)O)c2)c2ccc(Cl)c(F)c2n1CC(=O)N1CCC2(CC2)C1` [Compound 1-95, 3-((6-Chloro-7-fluoro-2-methyl-1-(2-oxo-2-(5-azaspiro[2.4]heptan-5-yl)ethyl)-1H-indol-3-yl)thio)benzoic acid] displayed an IC50 of no more than 500 nM. On to `Cc1c(Sc2cccc(C(=O)O)c2)c2ccc(Cl)c(F)c2n1CC(=O)N1CCC(c2cnn(C)c2)C1` (stereo not shown) [Compound 1-96, 3-((6-Chloro-7-fluoro-2-methyl-1-(2-(3-(1-methyl-1H-pyrazol-4-yl)pyrrolidin-1-yl)-2-oxoethyl)-1H-indol-3-yl)thio)benzoic acid], for which the 50% inhibitory concentration (IC50) is no more than 500 nM. As to `Cc1c(Sc2cccc(C(=O)O)c2)c2ccc(Cl)c(F)c2n1CC(=O)N1CCc2ccncc21` [Compound 1-97, 3-((6-Chloro-1-(2-(2,3-dihydro-1H-pyrrolo[2,3-c]pyridin-1-yl)-2-oxoethyl)-7-fluoro-2-methyl-1H-indol-3-yl)thio)benzoic acid], the IC50 was no more than 500 nM.

Turning to `Cc1c(Sc2cccc(C(=O)O)c2)c2ccc(Cl)c(F)c2n1CC(=O)N1CC2CCCCC2C1` (stereo not shown) [Compound 1-98, 3-((6-Chloro-7-fluoro-1-(2-(hexahydro-1H-isoindol-2(3H)-yl)-2-oxoethyl)-2-methyl-1H-indol-3-yl)thio)benzoic acid], the 50% inhibitory concentration (IC50) was no more than 500 nM. In turn, `Cc1c(Sc2cccc(C(=O)O)n2)c2ccc(Cl)c(F)c2n1CC(=O)N1CCc2ccccc21` [Compound 2-3] displayed an IC50 of no more than 500 nM. Turning to `Cc1c(Sc2cccc(C(=O)O)n2)c2ccc(Cl)c(F)c2n1CC(=O)N1CC2(CC2)c2ccccc21` [Compound 2-54, 6-((6-Chloro-7-fluoro-2-methyl-1-(2-oxo-2-(spiro[cyclopropane-1,3′-indolin]-1′-yl)ethyl)-1H-indol-3-yl)thio)picolinic acid], the IC50 is no more than 500 nM.

The compound `Cc1c(Sc2cccc(C(=O)O)c2F)c2ccc(Cl)c(F)c2n1CC(=O)N1CC2(CC2)c2ccccc21` [Compound 2-55, 3-((6-Chloro-7-fluoro-2-methyl-1-(2-oxo-2-(spiro[cyclopropane-1,3′-indolin]-1′-yl)ethyl)-1H-indol-3-yl)thio)-2-fluorobenzoic acid] registered an IC50 of no more than 500 nM. The compound `Cc1c(Sc2cccc(C(=O)O)c2F)c2ccc(Cl)c(F)c2n1CC(=O)N1CCc2ccncc21` [Compound 2-60, 3-((6-Chloro-1-(2-(2,3-dihydro-1H-pyrrolo[2,3-c]pyridin-1-yl)-2-oxoethyl)-7-fluoro-2-methyl-1H-indol-3-yl)thio)-2-fluorobenzoic acid] gave a half-maximal inhibitory concentration (IC50) of no more than 500 nM.
